Laboratory results reported in patent publication US20020172967A1, “Identification of non-covalent complexes by mass spectrometry” (priority 2001, published 2002).
Entries after “also recorded” stand apart in the source; their conditions may differ. Read-outs that look alike come from different tables or passages of the source.

Assays:
PTP1b = biological target: T1, PTP1b (Homo sapiens, UniProt P18031); assay: chromagenic substrate assay of PTP1b function; type: biochemical; conditions: titration curves, FIG. 4
T1 sequence (P18031 1-435): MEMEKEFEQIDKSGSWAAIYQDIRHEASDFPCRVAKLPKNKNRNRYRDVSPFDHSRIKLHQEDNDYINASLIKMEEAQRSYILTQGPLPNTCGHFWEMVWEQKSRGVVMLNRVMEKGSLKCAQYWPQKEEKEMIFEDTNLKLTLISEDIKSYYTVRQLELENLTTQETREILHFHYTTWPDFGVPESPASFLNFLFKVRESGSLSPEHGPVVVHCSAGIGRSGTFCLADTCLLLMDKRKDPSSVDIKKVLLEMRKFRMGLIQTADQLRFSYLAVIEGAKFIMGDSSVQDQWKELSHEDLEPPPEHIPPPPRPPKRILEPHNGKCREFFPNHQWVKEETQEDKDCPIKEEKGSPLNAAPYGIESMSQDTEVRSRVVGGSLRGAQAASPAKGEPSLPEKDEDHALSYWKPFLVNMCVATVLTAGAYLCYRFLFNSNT
Experimental: FIG. 4 is a graph of titration curves used to determine the IC50 of the squaric acid fragment 8A and moniliformin.
(§1) The candidate target binding ligands shown below were tested by mass spectrometry in a manner similar to Example 1 to determine whether any of the fragments bound specifically to the target biomolecule, protein tyrosine phosphatase 1b (PTP1b), observed 1:1 noncovalent complex. Fragment molecules were chosen based on either their ability to mimic the stabilized transition state of PTP1b with a tyrosine phosphate ester or based on their known or suspected ability to inhibit cysteine proteases and the homology or similarities in the active sites PTP1b and cysteine proteases. The transition state mimics included in the library are derivatives of moniliformin and deltic acid. Each of these compounds contain a planar arrangement of oxygen atoms around and electrophilic center, similar to the planar arrangement of oxygen atoms around an electrophilic phosphorous in the stabilized transition state complex of phosphotyrosine and PTP1b. Also contained in the library were various examples of some fragment molecules containing functional groups known or suspected to interact with an active site cysteine of cysteine proteases. Included in this example are aldehydes, α-ketoacids, boronic acids, and […]. Other fragment molecules could contain functional groups such as α-ketoesters, sulfonyl fluorides, haloketones, azabenzenes, and disulfides and other fragment molecules that contain functional groups known or suspected to react with mercaptans. […] The ability of these fragments to block the function of PTP1b was determined by a chromagenic substrate assay.

[1] = biological target: T2, stromelysin (catalytic domain) (Homo sapiens, UniProt P08254); assay: ESI-MS detection of noncovalent complexes and competition experiments with stromelysin; type: binding; conditions: for specificity of association (no greater than 1:1 complex): ESI-MS; for competition of two ligands for the same binding site: pairwise ESI-MS experiment, ternary complex present or absent; for competitive / non-competitive binder or non-binder: ESI-MS competition experiments, S1′ site, same binding site as 4-phenylpyridine
T2 construct: The catalytic domain of stromelysin was prepared in accordance with well-known known procedures; made in house
T2 sequence (P08254 100-272 limits assumed): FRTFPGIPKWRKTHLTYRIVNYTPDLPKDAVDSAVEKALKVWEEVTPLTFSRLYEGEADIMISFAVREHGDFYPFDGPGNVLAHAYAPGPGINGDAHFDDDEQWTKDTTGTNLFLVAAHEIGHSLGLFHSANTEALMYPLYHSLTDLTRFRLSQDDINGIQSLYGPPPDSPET
Experimental: FIGS. 7A-7E are ligands that are known to bind in the S1′ site on stromelysin. […] The relative dissociation constants for each for each ligand were measured to optimize the amide. Competition experiments were also performed to assure that each ligand bound in the same binding site as 4-phenylpyridine. [drawing 41]
Acetohydroxamic acid was used as the ligand for the first binding site of stromelysin. It has been reported that complexation of zinc with acetohydroxamic acid prevents autocatalytic degradation of the protein.
The ESI-MS measurements were recorded on a Perkin Elmer Sciex API III mass spectrometer. Samples were introduced via […] i.d. fused silica capillary from a 50 μL syringe using a Harvard Apparatus Model 22-syringe pump at a flow rate of 1.500 μL/min. The orifice potential was set between 55 and 65V, and the interface heater was at 56° C. Mass spectra were obtained by averaging a sufficient number of scans to obtain adequate signal to noise.
The sample was analyzed by ESI-MS.
The catalytic domain of stromelysin was prepared in accordance with well-known known procedures. […] The stromelysin used for this study was in a solution of 20 mM Tris buffer, 5 mM CaCl2, 0.02% NaN3 at a pH of 7.5 and at a concentration of either 19.6 mg/mL or 21.7 mg/mL. Acetohydroxamic acid was used for the zinc-binding site.
The second step in the design process was the identification of a second ligand that binds to the target stromelysin at a site different from the binding site of acetohydroxamic acid. This may be accomplished by screening compounds for their ability to bind stromelysin in the presence of saturating amounts of acetohydroxamic acid.
The next step in the design process was to construct a ternary complex of the target stromelysin, the first ligand and the second ligand. This was accomplished by exposing the stromelysin target to the two ligands under conditions that result in complex formation.

[2] = biological target: T3, protein tyrosine phosphatase 1b (PTP1b) (Homo sapiens, UniProt P18031); assay: ESI-MS detection of 1:1 noncovalent complex with PTP1b; type: binding; conditions: mass spectrometry; for formation of specific complex with PTP1b: 1:1 noncovalent complex
T3 sequence (P18031 1-435): T1 sequence (P18031 1-435)
Experimental: as §1

specificity of association (no greater than 1:1 complex) [1] | Structure (SMILES) | competition of two ligands for the same binding site [1] | also measured
– | O=c1cc(O)c1=O [moniliformin] | – | IC50 (PTP1b; read-out: IC50): 12 µM
bind to the protein specifically | N#Cc1ccc(NC(=O)Cc2ccccc2)cc1 [N-(4-cyanophenyl)-2-phenylacetamide] | do not compete for the same binding site on the protein | –
specific | COc1ccc(C(=O)Nc2ccccc2)cc1 [4-methoxy-N-phenylbenzamide] | compete for the same binding site on the protein | –
specific | N#Cc1ccc(-c2ccc(O)cc2)cc1 [4-(4′-cyanophenyl)-phenol] | do not compete for the same binding site on a protein | –
– | O=c1c(O)c(-c2ccccc2)c1=O [Compound 8A] | – | IC50 (PTP1b; read-out: IC50): 60 µM; formation of specific complex with PTP1b [2]: formed specific complexes with PTP1b; Kd ([2]; read-out: binding constant (Kd)): 25 µM
– | COc1ccc(C(=O)NCc2ccccc2)cc1 [Ligand 7G] | – | competitive / non-competitive binder or non-binder [1]: competitive binders
– | O=CCCc1ccccc1 [Compound 8D] | – | IC50 (PTP1b): did not have the ability to block function; formation of specific complex with PTP1b [2]: formed specific complexes with PTP1b
– | c1ccc(-c2ccncc2)cc1 [Ligand 7B] | – | competitive / non-competitive binder or non-binder [1]: non-competitive binders
specific | CC(=O)NO [acetohydroxamic acid] | do not compete for the same binding site on a protein | –

Structure (SMILES) | specificity of association (no greater than 1:1 complex) [1] | competition of two ligands for the same binding site [1] | also measured
c1ccc(-c2ccncc2)cc1 [4-phenylpyridine] | specific; also recorded: bind to the protein specifically | – | –
